Legend:
[1] = system: capillary vessel hyperplasia (experimental diabetic retinopathy); assay: therapeutic effect on experimental diabetic retinopathy; type: in vivo, rat (wister); conditions: for improving effect of pathologic state / beneficial effect on the pathologic state: I.P.; for improving effect of pathologic state: ten consecutive days; for beneficial effect on the pathologic state: ten days
Description: First, streptozocin in an amount of 65 mg/kg was administered to a six-week aged male wister rat from its vena caudalis, and about three months thereafter, 3,3'-iminodipropionitrile was administered. Rats in which abnormal growth of capillary vessel (hyperplasia retinitis) was observed were screened out and were subjected to a medicament administration test with ten rats as a group.
For comparison purposes, the effect of the medroxyprogesterone acetate (MPA), the conventional substance for inhibiting the neovascularization, was also tested by the same procedure as described above.

[2] = toxicity in rats, parenteral administration; type: in vivo, rat; conditions: 500 to 3,500 mg/kg in 50% dimethylsulfoxide, I.V. or I.P.
[3] = system: neovascularization in the cornea; assay: inhibition of neovascularization in the cornea of rabbits (slow-releasing pellet); type: in vivo, rabbit; conditions: 100 μg and 1.0 mg in pellet with 10 μg prostaglandin E1 or 200 μg cuprous chloride; seven days
[4] = system: neovascularization of chorio-allantoic membranes; assay: neovascularization inhibition on chorio-allantoic membranes of fertilized fowl eggs; type: in vivo; conditions: for neovascularization inhibitory rate: two days; for neovascularization inhibitory effect (in words): commercially available

SMILES: CC(=O)O[C@]1(C(C)=O)CC[C@H]2[C@@H]3C[C@H](C)C4=CC(=O)CC[C@]4(C)[C@H]3CC[C@@]21C [MPA, medroxyprogesterone acetate, reference compound]
- improving effect of pathologic state ([1]; Table 3, 1.5 mg/kg): -
- improving effect of pathologic state ([1]; Table 3, 3.0 mg/kg): + (improving effects of pathologic state of 10 to 30%)
- improving effect of pathologic state ([1]; Table 3, 4.5 mg/kg): + (improving effects of pathologic state of 10 to 30%)
- improving effect of pathologic state ([1]; Table 3, 6.0 mg/kg): ++ (30 to 70%)

SMILES: Nc1ncnc2c1ncn2[C@@H]1O[C@H](COP(=O)(O)OS(=O)(=O)O)[C@@H](OP(=O)(O)O)[C@H]1O [PAPS, 3-phosphoadenosine 5'-phosphosulfate]
- intoxication or lethality [2]: no cases of intoxication or lethality
- beneficial effect on the pathologic state ([1]; 1.5 mg/kg administration group): 10%
- beneficial effect on the pathologic state ([1]; 3.0 mg/kg group): 70%
- beneficial effect on the pathologic state ([1]; 6.0 mg/kg group): at least 80%
- improving effect of pathologic state ([1]; Table 3, 1.5 mg/kg): + (improving effects of pathologic state of 10 to 30%)
- improving effect of pathologic state ([1]; Table 3, 3.0 mg/kg): ++ (30 to 70%)
- improving effect of pathologic state ([1]; Table 3, 4.5 mg/kg): +++ (70 to 100%)
- improving effect of pathologic state ([1]; Table 3, 6.0 mg/kg): +++ (70 to 100%)
- therapeutic effect as compared with MPA (in words) ([1]; any of the doses (1.5-6.0 mg/kg), compared with MPA): excellent therapeutic effect
- inhibition of neovascularization caused by prostaglandin E1 or cuprous chloride [3]: perfectly inhibit the neovascularization
- neovascularization inhibitory rate ([4]; Table 1, commercially available (Sigma), dose 1 μg): + (10 to 80% (+))
- neovascularization inhibitory rate ([4]; Table 1, commercially available (Sigma), dose 10 μg): ++ (80 to 70% (++))
- neovascularization inhibitory rate ([4]; Table 1, commercially available (Sigma), dose 100 μg): ++ (80 to 70% (++))
- neovascularization inhibitory rate ([4]; Table 1, commercially available (Sigma), dose 1,000 μg): +++ (70 to 100% (+++))
- neovascularization inhibitory rate ([4]; Table 2, enzyme-synthesized, dose 1 μg): + (10 to 80% (+))
- neovascularization inhibitory rate ([4]; Table 2, enzyme-synthesized, dose 10 μg): ++ (80 to 70% (++))
- neovascularization inhibitory rate ([4]; Table 2, enzyme-synthesized, dose 100 μg): ++ (80 to 70% (++))
- neovascularization inhibitory rate ([4]; Table 2, enzyme-synthesized, dose 1,000 μg): +++ (70 to 100% (+++))
- neovascularization inhibitory effect (in words) ([4]; dose 10 μg): slight effect
- neovascularization inhibitory effect (in words) ([4]; dose at least 100 μg): perfect neovascularization inhibitory effect
- neovascularization inhibition (in words) ([4]; enzyme-synthesized, dose range 1 to 1,000 μg): inhibited neovascularization in a dose-dependent manner
